In US10246455B2, “Histone deacetylase inhibitors” (Taipei Medical University, priority 2014, dated 2019):

Key:
[1] = system: histone and α-tubulin acetylation in MDA-MD-231 breast carcinoma; assay: Western blot: acetylation in MDA-MD-231 cells; format: cell-based, human
Description: More specifically, cells in the logarithmic phase were initially seeded at a density of 1×10^6 in 100 mm^2 dishes. […] Briefly, cells were lysed with the cell lysis reagent CelLytic™ M (Sigma-Aldrich) containing 1 mM DTT, 1 mM PMSF and protease inhibitors for whole-cell lysate preparation. Equal amounts of lysate (on a protein basis) were then differentiated using the SDS-PAGE, blotted on PVDF membranes, conjugated with various specific primary antibodies, and then probed with appropriate secondary antibodies. The immunoreactive bands were detected using the ECL method and visualized on Kodak Bio-MAX MR film.
(§1) Proteins from cells were extracted and subjected to the western blotting analysis. β-Actin was used as an internal control. The deacetylase enzyme assay was based on a homogeneous fluorescence release assay. […] After fluorophore from the deacetylated substrates, fluorescent signal was detected.

[2] = system: MDA-MB-231 (breast carcinoma); assay: IC50 against human cancer cell lines: MDA-MB-231; details: MDA-MB-231, read-out: IC50 ± SD against human cancer cell lines
Description: (§2) More specifically, the IC50 values of test compounds were determined by carrying out a fluorimetric histone deacetylase assay following the manufacturer's instructions. For a pan-HDAC assay, HeLa nuclear extracts were used as a source of histone deacetylase (BioVision Inc.). Histone deacetylase isomer inhibition assays were conducted using purified recombinant histone deacetylase proteins of the various isomers (BPS Bioscience Inc.). Reactions were performed in 0.1 mol/L KCl, 20 mmol/L HEPES/NaOH at pH 7.9, 20% glycerol, 0.2 mmol/L DTA, 0.5 mmol/L DTT, and 0.5 mmol/L phenylmethylsulfonylfluoride. […] Reactions were carried out in triplicate for each test compound. Each point represented the mean±SD of replicates.

[3] = system: WI-38 (normal: lung); assay: IC50 against cell lines: WI-38; details: Homo sapiens, WI-38, read-out: IC50 ± SD against human cancer cell lines
[4] = system: SCC15 (tongue carcinoma); assay: IC50 against human cancer cell lines: SCC15; details: SCC-15, read-out: IC50 ± SD against human cancer cell lines
[5] = system: KB-L30 (KB-resistant); assay: IC50 against human cancer cell lines: KB-L30; details: read-out: IC50 ± SD against human cancer cell lines
Description: as §2

[6] = system: RWPE-1 (normal: prostate); assay: IC50 against cell lines: RWPE-1; details: Homo sapiens, RWPE-1, read-out: IC50 ± SD against human cancer cell lines
[7] = system: LNCaP-104 (prostate carcinoma); assay: IC50 against human cancer cell lines: LNCaP-104; details: read-out: IC50 ± SD against human cancer cell lines
[8] = system: LNCaP-R1 (prostate carcinoma); assay: IC50 against human cancer cell lines: LNCaP-R1; details: read-out: IC50 ± SD against human cancer cell lines
Description: as §2

[9] = system: K2 (normal: keratinocyte); assay: IC50 against cell lines: K2; details: Homo sapiens, read-out: IC50 ± SD against human cancer cell lines
[10] = system: HUVEC (normal: endothelial); assay: IC50 against cell lines: HUVEC; details: Homo sapiens, read-out: IC50 ± SD against human cancer cell lines
[11] = system: DU-145 (prostate carcinoma); assay: IC50 against human cancer cell lines: DU-145; details: DU-145, read-out: IC50 ± SD against human cancer cell lines
Description: as §2

[12] = system: K6 (normal: keratinocyte); assay: IC50 against cell lines: K6; details: Homo sapiens, read-out: IC50 ± SD against human cancer cell lines
[13] = molecular target: HDAC2 (Homo sapiens, UniProt Q92769); assay: Deacetylase enzyme assay (fluorescence release): HDAC2; format: biochemical; details: 24-hour study
From the text: as §1

[14] = system: Detroit551 (normal: fibroblast); assay: IC50 against cell lines: Detroit551; details: Homo sapiens, Detroit 551, read-out: IC50 ± SD against human cancer cell lines
[15] = system: OECM-1 (oral carcinoma); assay: IC50 against human cancer cell lines: OECM-1; details: OECM1, read-out: IC50 ± SD against human cancer cell lines
[16] = molecular target: HDAC6 (Homo sapiens, UniProt Q9UBN7); assay: Deacetylase enzyme assay (fluorescence release): HDAC6; format: biochemical; details: 24-hour study
From the text: as §1

[17] = system: BJAB (B cell lymphoma); assay: IC50 against human cancer cell lines: BJAB; details: read-out: IC50 ± SD against human cancer cell lines
[18] = system: MCF-7 (breast carcinoma); assay: IC50 in human cancer cell lines (inhibiting HDAC): MCF-7; details: MCF7, read-out: IC50, inhibiting HDAC in human cancer cell lines
[19] = system: human colorectal HCT116 xenograft; assay: In vivo antitumor activity assay, HCT116 xenograft; details: for inhibition of human colorectal HCT116 xenograft growth: day 22 after the first dosing
From the text: The antitumor effect of the two test compounds were examined in mice xenografted with human PC3 prostate cancer cells or HCT116 colorectal cells.
Five million PC3 cells were subcutaneously inoculated into specific pathogen-free male athymic mice (strain BALB/cAnN.Cg-Foxn1nu/CrlNarl) from the National Laboratory Animal Center, Taiwan. Mice were subsequently fed under specific pathogen-free conditions and provided with sterile water and food. When the tumor volume reached 150 to 200 mm^3, mice were assigned to groups randomly and treated with vehicle control or Compound 7 or 5b at 25/50/100 mg/kg. The compound was administered once a day, 5 days/week for 2 weeks (n=6) by oral administration. Tumor volume and body weight change were measured twice a week. At the end of the experiments (day 25 after first dosing), animals were euthanized in a CO2-containing chamber, and the tumors were collected and fixed in formaldehyde. The terminal deoxynucleotidyl transferase-mediated dUTP nick end labeling assay (TUNEL) was conducted for apoptosis detection. Tumor tissue sections were analyzed using a FITC In Situ Cell death detection kit (Roche) and fluorescence microscopy. Tissue treated with DNase was used as the positive control. Green fluorescence labeled nucleus indicates the induction of DNA fragmentation.

[20] = system: MKN-45 (gastric carcinoma); assay: IC50 in human cancer cell lines (inhibiting HDAC): MKN-45; details: MKN-45, read-out: IC50, inhibiting HDAC in human cancer cell lines
Description: as §2

[21] = system: C6 glioma cell line; assay: Cell death in C6 glioma in vitro (LDH assay); format: cell-based; details: rat C6 glioma, 30 uM, after 3 days
Description: Cell death was analyzed by a lactate dehydrogenase (LDH) assay. The culture medium was centrifuged after the experiment and the activity of LDH released into culture media was detected with a LDH cytotoxicity detection kit (Roche). The percentage of cytotoxicity was determined by the equation: [(Experimental group−Control group)/(Triton-100-treated group (100% maximal death)−Control group)]×100%.

Sequence of HDAC2 (Q92769 whole entry, species assumed): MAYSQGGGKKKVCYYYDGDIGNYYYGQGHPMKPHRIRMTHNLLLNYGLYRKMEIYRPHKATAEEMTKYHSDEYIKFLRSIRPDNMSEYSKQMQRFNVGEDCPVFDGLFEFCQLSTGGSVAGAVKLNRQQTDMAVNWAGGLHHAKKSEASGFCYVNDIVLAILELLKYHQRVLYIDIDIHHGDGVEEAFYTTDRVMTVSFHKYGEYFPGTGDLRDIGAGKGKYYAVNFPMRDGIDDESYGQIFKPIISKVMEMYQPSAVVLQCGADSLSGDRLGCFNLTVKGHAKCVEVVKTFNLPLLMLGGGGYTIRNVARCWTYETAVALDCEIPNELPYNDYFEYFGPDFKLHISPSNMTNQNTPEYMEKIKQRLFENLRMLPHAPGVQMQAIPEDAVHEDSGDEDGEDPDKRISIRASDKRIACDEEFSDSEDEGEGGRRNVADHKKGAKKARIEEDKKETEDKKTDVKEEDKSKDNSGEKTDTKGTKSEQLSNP
Sequence of HDAC6 (Q9UBN7 whole entry, species assumed): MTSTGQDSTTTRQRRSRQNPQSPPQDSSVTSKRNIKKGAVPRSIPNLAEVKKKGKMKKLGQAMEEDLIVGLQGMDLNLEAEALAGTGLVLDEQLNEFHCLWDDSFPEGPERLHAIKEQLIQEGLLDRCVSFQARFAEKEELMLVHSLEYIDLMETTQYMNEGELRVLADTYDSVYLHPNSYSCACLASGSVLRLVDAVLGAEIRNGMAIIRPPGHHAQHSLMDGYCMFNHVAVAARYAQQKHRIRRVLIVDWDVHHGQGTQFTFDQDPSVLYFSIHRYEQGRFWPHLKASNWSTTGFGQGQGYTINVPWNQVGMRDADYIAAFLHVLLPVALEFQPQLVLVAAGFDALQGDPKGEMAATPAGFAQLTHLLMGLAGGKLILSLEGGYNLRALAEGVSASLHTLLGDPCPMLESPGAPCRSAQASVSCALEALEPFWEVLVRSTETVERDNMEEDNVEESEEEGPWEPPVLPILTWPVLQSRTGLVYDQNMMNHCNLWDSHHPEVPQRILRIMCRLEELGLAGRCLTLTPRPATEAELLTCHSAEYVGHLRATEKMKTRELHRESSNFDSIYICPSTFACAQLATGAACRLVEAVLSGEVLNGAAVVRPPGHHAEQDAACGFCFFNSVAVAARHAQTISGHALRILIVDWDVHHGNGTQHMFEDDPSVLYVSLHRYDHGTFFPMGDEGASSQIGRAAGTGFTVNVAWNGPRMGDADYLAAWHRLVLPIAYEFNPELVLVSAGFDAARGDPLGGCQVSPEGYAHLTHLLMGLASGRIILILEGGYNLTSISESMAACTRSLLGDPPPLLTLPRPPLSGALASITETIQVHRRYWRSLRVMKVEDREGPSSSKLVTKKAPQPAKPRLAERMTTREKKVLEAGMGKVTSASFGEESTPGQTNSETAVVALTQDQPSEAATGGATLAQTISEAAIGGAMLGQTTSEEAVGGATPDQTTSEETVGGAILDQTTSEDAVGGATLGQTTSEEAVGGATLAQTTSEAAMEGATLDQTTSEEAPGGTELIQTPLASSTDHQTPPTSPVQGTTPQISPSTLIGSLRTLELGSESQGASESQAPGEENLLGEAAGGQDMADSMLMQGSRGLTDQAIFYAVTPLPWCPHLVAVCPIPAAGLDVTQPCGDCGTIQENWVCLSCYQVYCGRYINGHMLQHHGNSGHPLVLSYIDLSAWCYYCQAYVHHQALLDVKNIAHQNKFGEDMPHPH

Compound: COc1ccc(S(=O)(=O)N2CCc3cc(/C=C/C(=O)NO)cnc32)cc1 [Compound 5b, (E)-N-hydroxy-3-(1-(4-methoxyphenylsulfonyl)-2,3-dihydro-1H-pyrrolo[2,3-b]pyridin-5-yl)acrylamide]
- histone and α-tubulin acetylation [1]: induced histone and α-tubulin acetylation
- IC50 [2]: 247 ± 9.3 nM
- IC50 [3]: 272 ± 52.3 nM
- IC50 [4]: 176 ± 63.9 nM
- IC50 [5]: 175 ± 26.8 nM
- IC50 [6]: 240 ± 108 nM
- IC50 [7]: 180 ± 70 nM
- IC50 [8]: 150 ± 30 nM
- IC50 [9]: 447 ± 37.3 nM
- IC50 [10]: 62 ± 2.8 nM
- IC50 [11]: 90 ± 30 nM
- IC50 [12]: 545 ± 39 nM
- concentration inducing inhibition of HDAC2 [13]: ≤ 50 nM
- IC50 [14]: 707 ± 64.7 nM
- IC50 [15]: 384 ± 72.1 nM
- concentration inducing inhibition of HDAC6 [16]: about 100 nM
- IC50 [17]: 161 ± 20.3 nM

Compound: O=C(/C=C/c1cccc(S(=O)(=O)n2ccc3cccnc32)c1)NO [Compound 7, (E)-3-(3-(1H-Pyrrolo[2,3-b]pyridin-1-ylsulfonyl)phenyl)-N-hydroxyacrylamide]
- IC50 [18]: 1330 ± 360 nM
- inhibition of human colorectal HCT116 xenograft growth ([19]; 25 mg/kg): 50-60%
- inhibition of human colorectal HCT116 xenograft growth ([19]; 50 mg/kg): 50-60%
- inhibition of human colorectal HCT116 xenograft growth ([19]; 100 mg/kg): 50-60%
- body weight change ([19]; HCT116 xenograft mice, 25, 50 and 100 mg/kg): without causing much body weight change
- IC50 [20]: 2510 ± 810 nM
- induction of cell death (LDH) [21]: about 100%
